Source: patent US12606541B2, “PPARg modulators and methods of use” (Eisai R&D Management Co., Ltd., priority 2020, dated 2026)
Like-named read-outs stand apart in the source and are kept apart here.

Columns and labels:
His6-TEV-PPARγ-(234-505) = biological target: T1, His6-TEV-PPARγ-(234-505) (Homo sapiens, UniProt P37231); experiment: TR-FRET Assay to Measure Co-R Peptide Recruitment to PPARγ; type: biochemical; details: Co-R peptide (SMRT-ID2) recruitment; top final concentration 20 μM; read-out: TR-FRET i-Ag; AC50
T1 construct: The His6-TEV-PPARγ-(234-505) protein for assay was expressed and purified; TEV cleavage site (N); made in house
T1 sequence (P37231 234-505): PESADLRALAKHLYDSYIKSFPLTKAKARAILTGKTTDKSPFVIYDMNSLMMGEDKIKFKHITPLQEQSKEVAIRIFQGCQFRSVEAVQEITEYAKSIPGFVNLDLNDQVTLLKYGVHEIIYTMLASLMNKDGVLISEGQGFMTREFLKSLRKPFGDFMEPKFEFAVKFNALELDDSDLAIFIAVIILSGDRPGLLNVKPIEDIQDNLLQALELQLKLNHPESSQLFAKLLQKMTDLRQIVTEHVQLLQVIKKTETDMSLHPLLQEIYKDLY
Summary of the method: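 His-tagged PPARγ (or controls) was preincubated with compound for 20 minutes at room temperature, then 5 nM anti-His terbium antibody and 200 nM FITC-labeled SMRT-ID2 corepressor peptide (final) were added for a further hour. TR-FRET signal was normalized to percent response using 500 nM T0070907 and DMSO controls.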

UM-UC-9 engineered cells = experiment: Cell proliferation / short-term viability assay, CellTiter-Glo 144 h; type: cell-based, human; details: read-out: CTGlo 144 h UMUC9.5, G150
Summary of the method: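 UM-UC-9 engineered assay-ready cells seeded at 500 cells/well in high-glucose DMEM/10% FBS, treated from dose-response plates, grown at 37° C, 5% CO2. CellTiter-Glo 2.0 luminescence read on day 7, with a day-0 pretreatment plate as T0 reference and DMSO wells as negative control.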

Row | Compound | AC50 (His6-TEV-PPARγ-(234-505)) [nM] | IC50 (UM-UC-9 engineered cells; Homo sapiens, UM-UC-9, 144 h) [nM] | IC50 (UM-UC-9 engineered cells) [nM]
1 | COc1cc(-c2cc(C(=O)N3CCC(C(=O)NC4CCCC(F)(F)C4)CC3)n[nH]2)c(Cl)cn1 (stereo not drawn) [Example 143, 1-(5-(5-chloro-2-methoxypyridin-4-yl)-1H-pyrazole-3-carbonyl)-N-(3,3-difluorocyclohexyl)piperidine-4-carboxamide] | 910 | 3310 | –
2 | COc1cc(-c2cc(C(=O)N3[C@@H]4CC[C@H]3C[C@H](C(=O)NCc3ncc(F)cc3Cl)C4)n[nH]2)c(F)cn1 [Example 384, (1R,3s,5S)—N-((3-chloro-5-fluoropyridin-2-yl)methyl)-8-(5-(5-fluoro-2-methoxypyridin-4-yl)-1H-pyrazole-3-carbonyl)-8-azabicyclo[3.2.1]octane-3-carboxamide] | 15.2 | 82.1 | –
3 | Cc1cc(-c2cc(C(=O)N3CC[C@H](C(=O)N[C@H]4CC[C@@](O)(C(F)(F)F)CC4)CC34CC4)n[nH]2)c(F)cn1 (single isomer, unassigned) [Example 287-A] | 2.3 | 2.4 | –
4 | COc1cc(-c2cc(C(=O)N3CCC(C(=O)NCc4ccc5c(c4)CCS5(=O)=O)CC3)n[nH]2)c(Cl)cn1 [Example 237, 1-(5-(5-chloro-2-methoxypyridin-4-yl)-1H-pyrazole-3-carbonyl)-N-((1,1-dioxido-2,3-dihydrobenzo[b]thiophen-5-yl)methyl)piperidine-4-carboxamide] | 722 | > 10000 | –
5 | COc1cc(-c2cc(C(=O)N3CCC(C(=O)NCC(F)(F)c4ccccc4)CC3)n[nH]2)c(Cl)cn1 [Example 149, 1-(5-(5-chloro-2-methoxypyridin-4-yl)-1H-pyrazole-3-carbonyl)-N-(2,2-difluoro-2-phenylethyl)piperidine-4-carboxamide] | 49.3 | 418 | –
6 | O=C(N[C@H]1CC[C@@](O)(C(F)(F)F)CC1)[C@@H]1C[C@H]2CC[C@@H](C1)N2C(=O)c1cc(-c2ccnc(CO)c2)[nH]n1 [Example 317, (1R,3s,5S)—N-((1r,4R)-4-hydroxy-4-(trifluoromethyl)cyclohexyl)-8-(5-(2-(hydroxymethyl)pyridin-4-yl)-1H-pyrazole-3-carbonyl)-8-azabicyclo[3.2]octane-3-carboxamide] | 344 | > 10000 | –
7 | COc1cc(-c2cc(C(=O)N3CCC(C(=O)NCc4ccc5c(c4)ncn5C)CC3)n[nH]2)c(Cl)cn1 [Example 223, 1-(5-(5-chloro-2-methoxypyridin-4-yl)-1H-pyrazole-3-carbonyl)-N-((1-methyl-1H-benzo[d]imidazol-5-yl)methyl)piperidine-4-carboxamide] | 628 | > 10000 | –
8 | (S)—N—((S)-1-(5-cyclopropyl-1,3,4-oxadiazol-2-yl)ethyl)-4-(5-(5-fluoro-2-methoxypyridin-4-yl)-1H-pyrazole-3-carbonyl)-4-azaspiro[2.5]octane-7-carboxamide and (S)—N—((R)-1-(5-cyclopropyl-1,3,4-oxadiazol-2-yl)ethyl)-4-(5-(5-fluoro-2-methoxypyridin-4-yl)-1H-pyrazole-3-carbonyl)-4-azaspiro[2.5]octane-7-carboxamide [Example 395] | 274 | – | 761
9 | COc1cc(-c2cc(C(=O)N3CCC(C(=O)NCc4ccc5c(c4)C(C)(C)C(=O)N5)CC3)n[nH]2)c(Cl)cn1 [Example 242, 1-(5-(5-chloro-2-methoxypyridin-4-yl)-1H-pyrazole-3-carbonyl)-N-((3,3-dimethyl-2-oxoindolin-5-yl)methyl)piperidine-4-carboxamide] | 74.2 | 1660 | –
10 | COc1cc(-c2cc(C(=O)N3CC[C@@H](C(=O)NCc4cccc(Cl)c4)CC34CC4)n[nH]2)c(Cl)cn1 (single isomer, unassigned) [Example 245-B] | 109 | 415 | –
11 | COc1cc(-c2cc(C(=O)N3CCC(C(=O)N[C@@H](C)c4cccc(F)c4)CC3)n[nH]2)c(Cl)cn1 [Example 103, (8)-1-(5-(5-chloro-2-methoxypyridin-4-yl)-1H-pyrazole-3-carbonyl)-N-(1-(3-fluorophenyl)ethyl)piperidine-4-carboxamide] | 257 | 320 | –
12 | COc1cc(-c2cc(C(=O)N3CCC(C(=O)NCc4ccc5c(c4)C(C)(C)CN5)CC3)n[nH]2)c(F)cn1 [Example 278, N-((3,3-dimethylindolin-5-yl)methyl)-1-(5-(5-fluoro-2-methoxypyridin-4-yl)-1H-pyrazole-3-carbonyl)piperidine-4-carboxamide] | 75.1 | 478 | –
13 | COc1cc(-c2cc(C(=O)N3CC[C@H](C(=O)NC(C)C45CCC(O)(CC4)CC5)CC34CC4)n[nH]2)c(F)cn1 (single isomer, unassigned) [Example 411-A] | 160 | – | 527
14 | COc1cc(-c2cc(C(=O)N3CCC(C(=O)NC4C(=O)NCc5ccccc54)CC3)n[nH]2)c(Cl)cn1 (racemic) [Example 244, 1-(5-(5-chloro-2-methoxypyridin-4-yl)-1H-pyrazole-3-carbonyl)-N-(3-oxo-1,2,3,4-tetrahydroisoquinolin-4-yl)piperidine-4-carboxamide] | 605 | 5560 | –

Second part, led by results:

Row | AC50 (His6-TEV-PPARγ-(234-505)) [nM] | Compound | IC50 (UM-UC-9 engineered cells; Homo sapiens, UM-UC-9, 144 h) [nM] | IC50 (UM-UC-9 engineered cells) [nM]
15 | 24 | COc1cc(-c2cc(C(=O)N3CC[C@H](C(=O)N[C@@H]4CN(c5ccc(C)nc5)C[C@H]4F)CC34CC4)n[nH]2)c(F)cn1 [Example 426, (S)—N-((3R,4R)-4-fluoro-1-(6-methylpyridin-3-yl)pyrrolidin-3-yl)-4-(5-(5-fluoro-2-methoxypyridin-4-yl)-1H-pyrazole-3-carbonyl)-4-azaspiro[2.5]octane-7-carboxamide] | 50.9 | –
16 | 6.1 | COc1cc(-c2cc(C(=O)N3CC[C@H](C(=O)NCc4cccnc4C(F)(F)F)CC34CC4)[nH]n2)c(F)cn1 [Example 513, (S)-4-(3-(5-fluoro-2-methoxypyridin-4-yl)-1H-pyrazole-5-carbonyl)-N-((2-(trifluoromethyl)pyridin-3-yl)methyl)-4-azaspiro[2.5]octane-7-carboxamide] | – | 15.4
17 | 88.6 | COc1cc(-c2cc(C(=O)N3CC[C@H](C(=O)NCc4nc(C)c(C)n4C)CC34CC4)n[nH]2)c(F)cn1 [Example 465, (S)-4-(5-(5-fluoro-2-methoxypyridin-4-yl)-1H-pyrazole-3-carbonyl)-N-((1,4,5-trimethyl-1H-imidazol-2-yl)methyl)-4-azaspiro[2.5]octane-7-carboxamide] | 842 | –
18 | 209 | COc1cc(-c2cc(C(=O)N3CC[C@H](C(=O)NC4CCC(C)(C)N(C)C4)CC34CC4)n[nH]2)c(F)cn1 (single isomer, unassigned) [Example 424-B] | – | 929
19 | 123 | COc1cc(-c2cc(C(=O)N3CC[C@H](C(=O)NC4(C#N)CC4)CC34CC4)n[nH]2)c(F)cn1 [Example 448, (S)—N-(1-cyanocyclopropyl)-4-(5-(5-fluoro-2-methoxypyridin-4-yl)-1H-pyrazole-3-carbonyl)-4-azaspiro[2.5]octane-7-carboxamide] | 1640 | –
20 | 644 | COc1cc(-c2cc(C(=O)N3CC[C@H](C(=O)NCc4ncc(N5CC6CC5CN6)cn4)CC34CC4)n[nH]2)c(F)cn1 (single isomer, unassigned) [Example 467-B] | – | > 10000
21 | 102 | COc1cc(-c2cc(C(=O)N3CC[C@H](C(=O)NC(C)c4cc5n(n4)CCN(C)C5)CC34CC4)n[nH]2)c(F)cn1 (single isomer, unassigned) [Example 475-B] | – | 583
